Results published in EP0296264A1, “Aminopropanol derivatives of 3-(2-hydroxyphenyl)-1-propanone, process for their preparation and medicines containing these compounds” (Helopharm W. Petrik GmbH & Co.KG., priority 1987, dated 1988).
Counter-ions that a name gives are not always drawn.

Key:
[1] = Effect on contraction force of the heart, guinea pig papillary muscle (negative inotropy); format: cell-based, Meerschweinchen; settings: concentration that reduces the contraction of the papillary muscle by 20 %, read-out: C20_CF
Source text: Die Wirkung auf die Kontraktionskraft des Herzens wurde am Meerschweinchenpapillarmuskel untersucht. Hämodynamische Studien wurden bei gesunden, wie auch akut infarzierten Hunden durchgeführt.

[2] = system: Purkinje-Fasern aus Hundeherzen; assay: Electrophysiological study on Purkinje fibres from dog hearts (Vmax, conduction delay); format: cell-based, Hunde; settings: Canis lupus familiaris, read-out: C20_Vmax
Source text: Die antiarrhythmische Wirksamkeit der erfindungsgemäßen Verbindungen wurde sowohl anhand von elektrophysiologischen Studien an Purkinje-Fasern aus Hundeherzen sowie mit Hilfe von Ouabain-induzierten ventrikulären Tachykardien bei Hunden bestimmt. […]
Als zusätzliches Kriterium wurde der Vorzeitigkeitsindex (Prematurity-Faktor) bestimmt, der die erwünschte Wirksamkeit der erfindungsgemäßen Verbindungen bei frühzeitig einfallenden Extrasystolen charakterisiert.

Compound | IC20 [1] [µM] | IC20 [2] [µM]
COc1ccc(C(=O)CCc2ccccc2OCC(O)CNC(C)(C)C)cc1OC (stereo not drawn) [Beispiel 5, 1-(3,4-Dimethoxyphenyl)-3-[2ʹ-(2-hydroxy-3-tert.-butylamino-propoxy)-phenyl]-1-propanon-hydrochlorid] | 12 | 4.4
CCCNCC(O)COc1ccccc1CCC(=O)c1ccc(OC)c(OC)c1 (stereo not drawn) [Beispiel 1, 1-(3,4-Dimethoxyphenyl)-3-[2ʹ-(2-hydroxy-3-n-propylamino-propoxy)-phenyl]-1-propanon-hydrochlorid] | 15 | 12.5
COc1ccc(C(=O)CCc2ccccc2OCC(O)CNC(C)C)cc1OC (stereo not drawn) [Beispiel 4, 1-(3,4-Dimethoxyphenyl)-3-[2ʹ-(2-hydroxy-3-isopropylamino-propoxy)-phenyl]-1-propanon-hydrochlorid] | 22 | 4.8
COc1cccc(C(=O)CCc2ccccc2OCC(O)CNC(C)C)c1 (stereo not drawn) [Beispiel 24, 1-(3-Methoxyphenyl)-3-[2ʹ-(2-hydroxy-3-isopropylamino-propoxy)-phenyl]-1-propanon-hydrochlorid] | 10 | 1.6
COc1cc(C(=O)CCc2ccccc2OCC(O)CNC(C)C)cc(OC)c1OC (stereo not drawn) [Beispiel 12, 1-(3,4,5-Trimethoxyphenyl)-3-[2ʹ-(2-hydroxy-3-isopropylamino-propoxy)-phenyl]-1-propanon-hydrochlorid] | 18 | 5.8
COc1cc(C(=O)CCc2ccccc2OCC(O)CNC2CCCCC2)cc(OC)c1OC (stereo not drawn) [Beispiel 16, 1-(3,4,5-Trimethoxyphenyl)-3-[2ʹ-(2-hydroxy-3-cyclohexylamino-propoxy)-phenyl]-1-propanon-hydrochlorid] | 9 | 11.9
COc1ccc(C(=O)CCc2ccccc2OCC(O)CNCCO)cc1OC (stereo not drawn) [Beispiel 8, 1-(3,4-Dimethoxyphenyl)-3-[2ʹ-(2-hydroxy-3-(2ʺ-hydroxyethylamino)-propoxy)-phenyl]-1-propanon-hydrochlorid] | 13 | 8.3
COc1ccc(C(=O)CCc2ccccc2OCC(O)CNCC(C)O)cc1OC (stereo not drawn) [Beispiel 7, 1-(3,4-Dimethoxyphenyl)-3-[2ʹ-(2-hydroxy-3-(2ʺ-hydroxypropylamino)-propoxy)-phenyl]-1-propanon-hydrochlorid] | 18 | 5.7
CCC(CO)NCC(O)COc1ccccc1CCC(=O)c1ccc(OC)c(OC)c1 (stereo not drawn) [Beispiel 9, 1-(3,4-Dimethoxyphenyl)-3-[2ʹ-(2-hydroxy-3-(1ʺ-hydroxybut-2-ylamino)-propoxy)-phenyl]-1-propanon-oxalat] | 25 | 10.2
COc1ccc(C(=O)CCc2ccccc2OCC(O)CN2CCCCC2)cc1OC (stereo not drawn) [Beispiel 6, 1-(3,4-Dimethoxyphenyl)-3-[2ʹ-(2-hydroxy-3-piperidino-propoxy)-phenyl]-1-propanon-hydrochlorid] | 20 | 11.3
CCC(C)(C)NCC(O)COc1ccccc1CCC(=O)c1ccc(OC)c(OC)c1 (stereo not drawn) [Beispiel 2, 1-(3,4-Dimethoxyphenyl)-3-[2ʹ-(2-hydroxy-3-tert.-pentylamino-propoxy)-phenyl]-1-propanon-hydrochlorid] | 8 | 3.6

Further lines, with some results ahead:

IC20 [1] [µM] | Compound | IC20 [2] [µM]
2 | O=C(CCc1ccccc1OCC(O)CN1CCCCC1)c1ccccc1 (stereo not drawn) [Beispiel 47, 1-Phenyl-3-[2ʹ-(2-hydroxy-3-piperidino-propoxy)-phenyl]-1-propanon-hydrochlorid] | 0.3
4 | COc1cccc(C(=O)CCc2ccccc2OCC(O)CNC(C)(C)C)c1 (stereo not drawn) [Beispiel 27, 1-(3-Methoxyphenyl)-3-[2ʹ-(2-hydroxy-3-tert.-butylamino-propoxy)-phenyl]-1-propanon-hydrochlorid] | 1.6
3 | CCCNCC(O)COc1ccccc1CCC(=O)c1cccc(OC)c1 (stereo not drawn) [Beispiel 26, 1-(3-Methoxyphenyl)-3-[2ʹ-(2-hydroxy-3-n-propylamino-propoxy)-phenyl]-1-propanon-hydrochlorid] | 1.7
7 | COc1ccccc1C(=O)CCc1ccccc1OCC(O)CNC(C)(C)C (stereo not drawn) [Beispiel 38, 1-(2-Methoxyphenyl)-3-[2ʹ-(2-hydroxy-3-tert.-butylamino-propoxy)-phenyl]-1-propanon-hydrochlorid] | 1.7
2 | O=C(CCc1ccccc1OCC(O)CNC1CCCCC1)c1ccccc1 (stereo not drawn) [Beispiel 46, 1-Phenyl-3-[2ʹ-(2-hydroxy-3-cyclohexylamino-propoxy)-phenyl]-1-propanon-hydrochlorid] | 2.2
3 | CC(C)(C)NCC(O)COc1ccccc1CCC(=O)c1ccccc1 (stereo not drawn) [Beispiel 48, 1-Phenyl-3-[2ʹ-(2-hydroxy-3-tert.-butylamino-propoxy)-phenyl]-1-propanon-hydrochlorid] | 1
6 | Cc1ccc(C(=O)CCc2ccccc2OCC(O)CNC(C)(C)C)cc1 (stereo not drawn) [Beispiel 44, 1-(4-Methylphenyl)-3-[2ʹ-(2-hydroxy-3-tert.-butylamino-propoxy)-phenyl]-1-propanon-hydrochlorid] | 2.6
